Reference: patent US7312228B2, “Cytotoxic indeno and isoindoloisoquinolones” (Purdue Research Foundation, priority 2003, dated 2007)
Values joined by “and” are separate entries in the source; they are usually repeats but may differ in a detail not shown here. Equal entries are not always repeated. Where two headings read alike, the source gives them in different places.

Key:
[1] = test system: human cancer cell lines; assay: NCI screen mean graph midpoint over approximately 55 cancer cell lines; format: cell-based; conditions: for GI50: read-out: MGM (mean graph midpoint for growth inhibition); for cytotoxicity compared with other compounds: human cancer cell cultures
Method: Selected indenoisoquinolones described herein were examined for antiproliferative activity against the human cancer cell lines in the National Cancer Institute screen, in which the activity of each compound was evaluated with approximately 55 different cancer cell lines of diverse tumor origins. […] The relative activities of selected indenoisoquinolines described herein were obtained from the top 1-mediated DNA cleavage assay, and are also shown in Table 1. Compounds 2 and 7 are also included the Table 1.

[2] = biological target: T1, Human recombinant top1 (Homo sapiens, UniProt P11387); assay: Top1-mediated DNA cleavage reactions; format: biochemical; set-up: key to Top 1 Cleavage: weak activity (+); activity similar to compound 2 (++); activity greater than compound 2 (+++); conditions: for Top 1 Cleavage: tested at concentrations ranging up to 10 μM, relative to compound 2
T1 construct: made in house
T1 sequence (P11387 1-765): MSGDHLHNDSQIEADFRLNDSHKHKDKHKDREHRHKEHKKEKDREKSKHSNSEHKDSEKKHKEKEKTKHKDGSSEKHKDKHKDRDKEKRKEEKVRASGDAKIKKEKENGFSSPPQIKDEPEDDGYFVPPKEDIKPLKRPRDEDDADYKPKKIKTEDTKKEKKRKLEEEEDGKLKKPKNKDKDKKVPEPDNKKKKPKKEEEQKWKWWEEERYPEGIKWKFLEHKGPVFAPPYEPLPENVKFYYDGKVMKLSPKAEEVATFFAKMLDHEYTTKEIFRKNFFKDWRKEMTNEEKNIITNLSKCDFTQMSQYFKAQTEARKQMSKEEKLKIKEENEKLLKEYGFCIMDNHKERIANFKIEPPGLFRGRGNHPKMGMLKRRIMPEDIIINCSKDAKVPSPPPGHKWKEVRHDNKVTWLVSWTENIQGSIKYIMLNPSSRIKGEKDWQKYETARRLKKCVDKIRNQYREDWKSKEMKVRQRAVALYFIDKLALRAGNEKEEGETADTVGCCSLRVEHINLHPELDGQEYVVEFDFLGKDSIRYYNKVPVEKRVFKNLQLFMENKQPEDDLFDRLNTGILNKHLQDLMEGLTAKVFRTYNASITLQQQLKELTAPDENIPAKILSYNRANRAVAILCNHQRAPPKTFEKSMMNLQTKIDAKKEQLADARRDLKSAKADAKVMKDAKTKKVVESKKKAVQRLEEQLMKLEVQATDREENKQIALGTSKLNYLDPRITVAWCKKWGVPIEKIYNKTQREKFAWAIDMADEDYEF
Method: Human recombinant top1 was purified from Baculovirus as described by Pourquier et al. in J. Biol. Chem. 274:8516-23 (1999), the disclosure of which is incorporated herein by reference. The 161 bp fragment from pBluescript SK(−) phagemid DNA (Stratagene, La Jolla, Calif.) was cleaved with the restriction endonuclease Pvu II and Hind III (New England Biolabs, Beverly, Mass.) in supplied NE buffer 2 (10 μL reactions) for 1 h at 37° C., and separated by electrophoresis in a 1% agarose gel made in 1×TBE buffer. The 161 bp fragment was eluted from the gel slice (centrilutor by Amicon) and concentrated in a centricon 50 centrifugal concentrator (Amicon, Beverly, Mass.). Approximately 200 ng of the fragment was 3′-end labeled at the Hind III site by fill-in reaction with [alpha-^32P]-dGTP and 0.5 mM dATP, dCTP, and dTTP, in React 2 buffer (50 mM Tris-HCl, pH 8.0, […], 50 mM NaCl) with 0.5 units of DNA polymerase I (Klenow fragment). Unincorporated ^32P-dGTP was removed using mini Quick Spin DNA columns (Roche, Indianapolis, Ind.), and the eluate containing the 3′-end-labeled 161 bp fragment was collected. Aliquots (approximately 50,000 dpm/reaction) were incubated with top1 at 22° C. for 30 min in the presence of the tested drug. Reactions were terminated by adding SDS (0.5% final concentration). The samples (10 μL) were mixed with 30 μL of loading buffer (80% formamide, 10 mM sodium hydroxide, 1 mM sodium EDTA, 0.1% xylene cyanol, and 0.1% bromophenol blue, pH 8.0). Aliquots were separated in denaturing gels (16% polyacrylamide, 7 M urea). Gels were dried and visualized by using a Phosphoimager and ImageQuant software (Molecular Dynamics, Sunnyvale, Calif.).

[3] = test system: MDA-MB-435; assay: NCI screen antiproliferative activity, breast MDA-MB-435; format: cell-based, human; conditions: concentration corresponding to 50% growth inhibition, read-out: cytotoxicity (GI50) breast MDA-MB-435
Method: (§1) Selected indenoisoquinolones described herein were examined for antiproliferative activity against the human cancer cell lines in the National Cancer Institute screen, in which the activity of each compound was evaluated with approximately 55 different cancer cell lines of diverse tumor origins.

[4] = test system: OVCAR-3; assay: NCI screen antiproliferative activity, ovarian OVCAR-3; format: cell-based; conditions: Homo sapiens, concentration corresponding to 50% growth inhibition, read-out: cytotoxicity (GI50) ovarian OVCAR-3
Method: as §1

[5] = test system: SF-539; assay: NCI screen antiproliferative activity, CNS SF-539; format: cell-based; conditions: Homo sapiens, concentration corresponding to 50% growth inhibition, read-out: cytotoxicity (GI50) CNS SF-539
Method: as §1

[6] = test system: HCT-116; assay: NCI screen antiproliferative activity, colon HCT-116; format: cell-based; conditions: Homo sapiens, concentration corresponding to 50% growth inhibition, read-out: cytotoxicity (GI50) colon HCT-116
Method: as §1

[7] = test system: DU-145; assay: NCI screen antiproliferative activity, prostate DU-145; format: cell-based; conditions: Homo sapiens, concentration corresponding to 50% growth inhibition, read-out: cytotoxicity (GI50) prostate DU-145
Method: as §1

[8] = test system: UACC-62; assay: NCI screen antiproliferative activity, melanoma UACC-62; format: cell-based; conditions: Homo sapiens, concentration corresponding to 50% growth inhibition, read-out: cytotoxicity (GI50) melanoma UACC-62
Method: as §1

[9] = test system: HOP-62; assay: NCI screen antiproliferative activity, lung HOP-62; format: cell-based; conditions: Homo sapiens, concentration corresponding to 50% growth inhibition, read-out: cytotoxicity (GI50) lung HOP-62
Method: as §1

[10] = test system: SN12C; assay: NCI screen antiproliferative activity, renal SN12C; format: cell-based; conditions: Homo sapiens, concentration corresponding to 50% growth inhibition, read-out: cytotoxicity (GI50) renal SN12C
Method: as §1

Structure (SMILES)	GI50 ([1]; average GI50 of all approximately 55 cell lines, values outside 10^-8 to 10^-4 molar taken as the limits)	Top 1 Cleavage [2]	GI50 [3] [µM]	GI50 [4] [µM]	GI50 [5] [µM]	GI50 [6] [µM]	GI50 ([1]; Homo sapiens) [µM]	cytotoxicity compared with other compounds [1]	GI50 [7] [µM]	GI50 [8] [µM]	GI50 [9] [µM]	GI50 ([3]; Homo sapiens) [µM]	GI50 [10] [µM]	pattern of top1-mediated DNA cleavage sites [2]	melting point	top1 inhibitory activity compared with other compounds [2]
COc1cc2c3c(n(C)c(=O)c2cc1OC)-c1cc2c(cc1C3=O)OCO2 [compound 2, reference compound]	20.0 µM and 20 µM	++	96													
COc1cc2cc3n(c(=O)c2cc1OC)Cc1cc2ccccc2nc1-3 [compound 8, 8,9-Dimethoxy-12H-5,11a-diaza-dibenzo[b,h]fluoren-11-one]		+		> 100	> 100	57.3	91.2	generally less cytotoxic than compound 2	> 100	> 100	> 100	> 100	> 100			
O=c1c2ccccc2cc2n1Cc1cc3ccccc3nc1-2 [compound 13, 12H-5,11a-Diaza-dibenzo[b,h]fluoren-11-one]		++		39.8	66.7	32.7	58.9	generally less cytotoxic than compound 2	> 100	97.2	68.2	41.8	> 100	better resembled that of compound 2 than that of camptothecin		
COc1cc2c3c(n(C)c(=O)c2cc1OC)-c1cc2c(cc1C3=CCCCCl)OCO2 [compound 18, 11-(4′-Chlorobutylidene)-5,6-dihydro-2,3-dimethoxy-6-methyl-8,9-methylenedioxy-5-oxo-11H-indeno[1,2-c]isoquinoline]		+					33.1					> 100	> 100		196 to 201 °C	
COc1cc2c3c(n(C)c(=O)c2cc1OC)-c1cc2c(cc1C3=CCCCBr)OCO2 [compound 19, 11-(4′-Bromobutylidene)-5,6-dihydro-2,3-dimethoxy-6-methyl-8,9-methylenedioxy-5-oxo-11H-indeno[1,2-c]isoquinoline]		0		58.1	30	37.8	27.8		67.8	11.4	19.4	> 100	> 100		197 to 199 °C	
COc1cc2c3c(n(C)c(=O)c2cc1OC)-c1cc2c(cc1C3=CCCCCBr)OCO2 [compound 20, 11-(5′-Bromopentylidene)-5,6-dihydro-2,3-dimethoxy-6-methyl-8,9-methylenedioxy-5-oxo-11H-indeno[1,2-c]isoquinoline]				> 100			33.1			> 100		> 100	> 100		196 to 197 °C	higher inhibitory activity against top1 than the four-carbon alkenyl halides 19 and 24
COc1cc2c3c(n(C)c(=O)c2cc1OC)-c1cc2c(cc1C3=CCCCCCBr)OCO2 [compound 21, 11-(6′-Bromohexylidene)-5,6-dihydro-2,3-dimethoxy-6-methyl-8,9-methylenedioxy-5-oxo-11H-indeno[1,2-c]isoquinoline]		+					7.8	slightly more cytotoxic than compounds 18-20							182 to 185 °C	higher inhibitory activity against top1 than the four-carbon alkenyl halides 19 and 24
COc1cc2c3c(n(C)c(=O)c2cc1OC)-c1cc2c(cc1C3=CCCCI)OCO2 [compound 24, 11-(4′-Iodobutylidene)-5,6-dihydro-2,3-dimethoxy-6-methyl-8,9-methylenedioxy-5-oxo-11H-indeno[1,2-c]isoquinoline]		0		22.8	4.3	0.56	16.8	slightly more cytotoxic than compounds 18-20	28.7	3.5	27.6	5.2	8.8		173 to 174.5 °C	
COc1cc2c3c(n(C)c(=O)c2cc1OC)-c1cc2c(cc1C3=CCCN)OCO2 [compound 26, 11-(3′-Aminopropylidene)-5,6-dihydro-2,3-dimethoxy-6-methyl-8,9-methylenedioxy-5-oxo-11H-indeno[1,2-c]isoquinoline]		+++		0.56	0.42	0.028	0.34		0.37	0.2	0.071	1.8	0.58		> 180 °C (dec.)	more potent as a top1 poison than compound 2
